Experiments:
Assay in all cases: Cell growth inhibitory effect, cell counting kit 8, 6 days
Type in all cases: cell-based
[1] = tested on: NCI-H322 cells, a human lung cancer cell line; details: 144 h, 6 days incubation
Text: (§1) Cell growth inhibitory effect on human mesothelioma, human liver cancer, human ovarian cancer, and […]
(§2) NCI-H226 cells, a human mesothelioma cell line (ATCC, CRL-5826), NCI-H322 cells, a human lung cancer cell line (the European Collection of Authenticated Cell Cultures, 95111734), OVTOKO cells, a human ovarian cancer cell line (JCRB cell bank, JCRB1048) and HuH28, a human liver cancer cell line (JCRB cell bank, JCRB0426) were each subcultured by keeping the cell density under 80% in a RPMI1640 culture medium with 10% fetal bovine serum (FBS). NCI-H226 cells, NCI-H322 cells and SSP-25 cells were each suspended in the RPM11640 culture medium mentioned above, and plated to a 96-well flat-bottom plate at 500 cells/well in each well, and incubated at 37° C. in an incubator with 5% CO2 for one day. After the incubation, the evaluation of cell growth inhibitory activity was started. OVTOKO cells were suspended in the RPMI1640 culture medium mentioned above, and plated to a 96-well flat-bottom plate at 250 cells/well in each well, and incubated it at 37° C. in an incubator with 5% CO2 for one day. After the incubation, the evaluation of the cell growth inhibitory activity was started. The next day, a test compound was serially diluted to 5 times of its final concentration in the RPM11640 culture medium mentioned above, and the diluted solution was added to each well. In this case, the final concentration of DMSO in each well was adjusted to 0.1%. After the test compound was added, cells were incubated at 37° C. in an incubator with 5% CO2 for 6 days. At the addition of the test compound and 6 days after the addition, the cell counting measurement was performed using a cell counting kit 8 (made by DOJINDO) according to a protocol equivalent to DOJINDO's recommendation. A reagent contained in the kit was added to each plate and color reaction was performed for 2 or 3 hours at 37° C. in an incubator with 5% CO2. After the reaction, an absorbance at wavelength of 450 nm was measured using a microplate reader. A growth inhibition rate was calculated according to the following formula, from which the concentration of a test compound at which cell growth was inhibited by 50% (GI50 value) was determined.

[2] = tested on: NCI-H226 cells, a human mesothelioma cell line; details: 144 h, 6 days incubation
Text: as §1, §2

[3] = tested on: HuH28, a human liver cancer cell line; details: 144 h, HuH28 cells, 6 days incubation
Text: as §1, §2

[4] = group 100 nmol/L to 1 μmol/L (upper bound given in μmol/L)

| GI50 [1] [nM] | GI50 ([2]; group less than 100 nmol/L) [nM] | GI50 [3] [nM] | GI50 [2, 4] [nM] | Compound |
| --- | --- | --- | --- | --- |
| < 1000 | < 100 |  |  | C=CC(=O)N[C@H]1CC[C@@H](Oc2ccc(C(F)(F)F)cc2)c2nc(Cl)ccc21 (relative stereo) [Compound 76, cis-N-[2-Chloro-8-{4-(trifluoromethyl)phenoxy}-5,6,7,8-tetrahydroquinolin-5-yl]acrylamide] |
| < 1000 | < 100 | < 3000 |  | C=CC(=O)NC1CCOc2c1ccc(Oc1ccc(C(F)(F)F)nc1)c2Cl (centres unmarked) [Compound 168, N-(8-Chloro-7-[{6-(trifluoromethyl)pyridin-3-yl}oxy]chroman-4-yl)acrylamide] |
| < 1000 | < 100 |  |  | C=CC(=O)N[C@H]1CC[C@@H](Oc2ccc(Cl)cc2)c2nc(Cl)ccc21 (relative stereo) [Compound 70, cis-N-{2-Chloro-8-(4-chlorophenoxy)-5,6,7,8-tetrahydroquinolin-5-yl}acrylamide] |
| < 1000 | < 100 |  |  | C=CC(=O)N[C@@H]1c2ccc(Oc3ccc(C(F)(F)F)cc3)cc2OC[C@@H]1F (relative stereo) [Compound 21, cis-N-[3-Fluoro-7-{4-(trifluoromethyl)phenoxy}chroman-4-yl]acrylamide] |
| < 1000 |  | < 3000 | 100 to 1000 | C=CC(=O)NCc1ccc(C(=O)c2ccc(C(F)(F)F)cc2)c2ncccc12 [Compound 208, N-([8-{4-(Trifluoromethyl)benzoyl}quinolin-5-yl]methyl)acrylamide] |
| < 1000 | < 100 |  |  | C=CC(=O)NC1CCOc2c1ccc(Oc1ccc(Cl)cc1)c2C (centres unmarked) [Compound 27, N-{7-(4-Chlorophenoxy)-8-methylchroman-4-yl}acrylamide] |
| < 1000 |  | < 3000 | 100 to 1000 | C=CC(=O)NC1CCOc2c1ccc(Oc1ccc(F)c(F)c1)c2OC (centres unmarked) [Compound 164, N-{7-(3,4-Difluorophenoxy)-8-methoxychroman-4-yl}acrylamide] |
| < 1000 | < 100 | < 3000 |  | C=CC(=O)NCc1ccc(Oc2ccc(C(F)(F)F)cc2)c2nc(C)ccc12 [Compound 212, N-([2-Methyl-8-{4-(trifluoromethyl)phenoxy}quinolin-5-yl]methyl)acrylamide] |
| < 1000 | < 100 |  |  | C=CC(=O)NC1CCOc2c1ccc(Oc1ccc(Cl)cc1)c2OC (centres unmarked) [Compound 32, N-{7-(4-Chlorophenoxy)-8-methoxychroman-4-yl}acrylamide] |
| < 1000 | < 100 |  |  | C=CC(=O)Nc1cncc(Oc2ccc(C(F)(F)F)cn2)c1 [Compound 109, N-(5-[{5-(Trifluoromethyl)pyridin-2-yl}oxy]pyridin-3-yl)acrylamide] |
| < 1000 |  |  | 100 to 1000 | C=CC(=O)Nc1cncc(Oc2ccc(C(F)(F)F)c(F)c2)c1 [Compound 106, N-[5-{3-Fluoro-4-(trifluoromethyl)phenoxy}pyridin-3-yl]acrylamide] |
| < 1000 | < 100 |  |  | C=CC(=O)N[C@H]1CC[C@H](Oc2ccc(C(F)(F)F)cc2)c2nc(Cl)ccc21 (relative stereo) [Compound 82, trans-N-[2-Chloro-8-{4-(trifluoromethyl)phenoxy}-5,6,7,8-tetrahydroquinolin-5-yl]acrylamide] |
| < 1000 | < 100 |  |  | C=CC(=O)NC1COc2cccc(Oc3ccc(C(F)(F)F)cc3)c2C1 (centres unmarked) [Compound 35, N-[5-{4-(Trifluoromethyl)phenoxy}chroman-3-yl]acrylamide] |
| < 1000 |  |  | 100 to 1000 | C=CC(=O)NCc1cc(Oc2ccc(C(F)(F)F)cc2)cc2ncccc12 [Compound 220, N-([7-{4-(Trifluoromethyl)phenoxy}quinolin-5-yl]methyl)acrylamide] |
| < 1000 | < 100 |  |  | C=CC(=O)NCc1ccc(Oc2ccc(C(F)(F)F)nc2)c2cccnc12 [Compound 219, N-{(5-[{6-(Trifluoromethyl)pyridin-3-yl}oxy]quinolin-8-yl)methyl}acrylamide] |
| < 1000 | < 100 |  |  | C=CC(=O)N[C@H]1CC[C@@H](Oc2ccc(C(F)(F)F)cc2)c2nc(C)ccc21 (relative stereo) [Compound 184, cis-N-[2-Methyl-8-{4-(trifluoromethyl)phenoxy}-5,6,7,8-tetrahydroquinolin-5-yl]acrylamide] |

| GI50 [1] [nM] | GI50 ([2]; group less than 100 nmol/L) [nM] | GI50 [3] [nM] | GI50 [2, 4] [nM] | Compound |
| --- | --- | --- | --- | --- |
| < 1000 | < 100 |  |  | C=CC(=O)NC1COc2c(cccc2Oc2ccc(C(F)(F)F)nc2)C1 (racemic) [Compound 51, N-(8-[{6-(Trifluoromethyl)pyridin-3-yl}oxy]chroman-3-yl)acrylamide] |
| < 1000 |  |  |  | C=CC(=O)NC1COc2c(cccc2Oc2ccc(C(F)(F)F)cn2)C1 (centres unmarked) [Compound 64, N-(8-[{5-(Trifluoromethyl)pyridin-2-yl}oxy]chroman-3-yl)acrylamide] |
| < 1000 | < 100 |  |  | C=CC(=O)NC1COc2c(cccc2Oc2ccc(Cl)cc2)C1 (centres unmarked) [Compound 59, N-{8-(4-chlorophenoxy)chroman-3-yl}acrylamide] |
| < 1000 | < 100 |  |  | C=CC(=O)NC1COc2c(cccc2Oc2ccc(C(F)(F)F)nc2)C1 (centres unmarked) [Compound 229, N-(8-[{6-(Trifluoromethyl)pyridin-3-yl}oxy]chroman-3-yl)acrylamide] |
| < 1000 | < 100 |  |  | C=CC(=O)N[C@H]1CC[C@@H](Oc2ccc(Cl)cc2)c2nc(OC)ccc21 (relative stereo) [Compound 71, cis-N-{8-(4-Chlorophenoxy)-2-methoxy-5,6,7,8-tetrahydroquinolin-5-yl}acrylamide] |
| < 1000 |  |  |  | C=CC(=O)NC1CCC(Oc2ccc(C(F)(F)F)cc2)c2cnccc21 (centres unmarked) [Compound 228, N-[8-{4-(Trifluoromethyl)phenoxy}-5,6,7,8-tetrahydroisoquinolin-5-yl]acrylamide] |
| < 1000 |  |  |  | C=CC(=O)NC1COc2cc(Oc3ccc(Cl)cc3)ccc2C1 (centres unmarked) [Compound 37, N-{7-(4-Chlorophenoxy)chroman-3-yl}acrylamide] |
| < 1000 |  |  |  | C=CC(=O)NC1COc2c(cccc2Oc2ccc(C(F)(F)F)cc2)C1 (centres unmarked) [Compound 61, N-[8-{4-(Trifluoromethyl)phenoxy}chroman-3-yl]acrylamide] |
| < 1000 | < 100 |  |  | C=CC(=O)NC1COc2c(Oc3ccc(Cl)cc3)ccc(C)c2C1 (centres unmarked) [Compound 41, N-{8-(4-Chlorophenoxy)-5-methylchroman-3-yl}acrylamide] |
|  |  |  | 100 to 1000 | C=CC(=O)Nc1ccc(Oc2ccc(Cl)cc2)c2ncccc12 [Compound 116, N-{8-(4-Chlorophenoxy)quinolin-5-yl}acrylamide] |
|  |  |  | 100 to 1000 | C=CC(=O)NC1CCOc2ccc(Oc3ccc(Cl)cc3)cc21 (centres unmarked) [Compound 24, N-{6-(4-Chlorophenoxy)chroman-4-yl}acrylamide] |
|  |  |  | 100 to 1000 | C=CC(=O)N[C@H]1CC[C@@H](Oc2cnc(Cl)c(Cl)c2)c2nc(Cl)ccc21 (relative stereo) [Compound 181, cis-N-[2-Chloro-8-{(5,6-dichloropyridin-3-yl)oxy}-5,6,7,8-tetrahydroquinolin-5-yl]acrylamide] |
|  |  |  | 100 to 1000 | O=C(/C=C/C(F)(F)F)NCc1cc(Oc2ccc(C(F)(F)F)cc2)nc2ccccc12 [Compound 147, (E)-4,4,4-Trifluoro-N-([2-{4-(trifluoromethyl)phenoxy}quinolin-4-yl]methyl)-2-butenamide] |
| < 1000 | < 100 |  |  | C=CC(=O)NCc1ccc(Oc2ccc(C(F)(F)F)cc2)c2cccnc12 [Compound 216, N-([5-{4-(Trifluoromethyl)phenoxy}quinolin-8-yl]methyl)acrylamide] |
|  |  |  | 100 to 1000 | C=CC(=O)N[C@H]1CC[C@H](Oc2ccc(Cl)cc2)c2nc(OC)ccc21 (relative stereo) [Compound 81, trans-N-{8-(4-Chlorophenoxy)-2-methoxy-5,6,7,8-tetrahydroquinolin-5-yl}acrylamide] |

| Compound | GI50 [1] [nM] | GI50 ([2]; group less than 100 nmol/L) [nM] | GI50 [3] [nM] | GI50 [2, 4] [nM] |
| --- | --- | --- | --- | --- |
| C=CC(=O)NC1COc2c(cccc2Oc2cnc(C(F)(F)F)cn2)C1 (centres unmarked) [Compound 157, N-(8-[{5-(Trifluoromethyl)pyrazin-2-yl}oxy]chroman-3-yl)acrylamide] | < 1000 | < 100 |  |  |
| C=CC(=O)NC1COc2c(cc(C(F)(F)F)cc2Oc2ccc(C(F)(F)F)nc2)C1 (centres unmarked) [Compound 162, N-{6-(Trifluoromethyl)-8-[{6-(trifluoromethyl)pyridin-3-yl}oxy]chroman-3-yl}acrylamide] | < 1000 |  |  | 100 to 1000 |
| C=CC(=O)NC1COc2c(cc(Br)cc2Oc2ccc(C(F)(F)F)nc2)C1 (racemic) [Compound 153, N-(6-Bromo-8-[{6-(trifluoromethyl)pyridin-3-yl}oxy]chroman-3-yl) acrylamide] |  |  |  | 100 to 1000 |

— US11332455B2, “α,β-unsaturated amide compound” (KYOWA KIRIN CO., LTD., priority 2015, dated 2022)
